A short description of data set [1]: Pilot double-blind crossover study in subjects with erectile dysfunction principally of psychogenic origin. The data set is classed as in vivo, human. From the text: The primary efficacy parameter was each subject's assessment of the quality of the erection (graded on a 4-point scale). Secondary endpoints included frequency of erection, time from dosing to erection, duration of erection, and efficacy index (EI) for subjects achieving erections. Safety was primarily assessed via adverse events but cardiovascular effects were also investigated by monitoring blood pressure, heart rates, and percent oxygen saturation, prior to and following dosing. The integrity of the nasal mucosa of both nostrils was also evaluated prior to dosing, in the event of nasal symptoms, and at the end of each treatment visit.
Subjects made a total of six visits to the site, an initial screening and qualification visit, three treatment visits in Part 1, and two treatment visits in Part 2. Eligible subjects were randomized to a treatment sequence for Part I after the initial screening visit. Approximately 2 months later, subjects were randomized to a treatment sequence for Part 2.
At each treatment visit, a single dose of study treatment was administered. Efficacy was measured by means of ED questionnaires, which were completed by each subject. Following dosing, all subjects viewed sexually explicit videotapes and magazines for approximately 60 minutes. At the end of this period, the questionnaires were completed and patients were asked to rate the quality of the erection using a 4-point scale. The primary efficacy variable was the subject's global rating of erection, measured on a scale of 1 to 4: 1=increase in size but not hard; 2=hard, but not hard enough for vaginal penetration; 3=hard enough for vaginal penetration (but not completely hard); 4=completely hard.
Safety was measured by monitoring the subjects' blood pressure, heart rate and percent oxygen saturation (by pulse oximetry) before and after dosing (approximately 90 minutes after dosing commenced). In addition, the integrity of the subject's nasal mucosa was assessed prior to, and at the end of treatment. Information on adverse events was collected throughout the period of the study.
Drugs, Doses, and Regimens: At each treatment visit, subjects received one dose of study treatment.

For data set [2] the following is noted: 25° C.; cited from earlier work.
For data set [3] the following is noted: cited from earlier work.
For data set [4] the following is noted: adverse event rate, comparator; cited from earlier work.

Structures are written as SMILES. Structures can show the parent of a compound that is named as a salt. Where two headings read alike, the source gives them in different places.

Regarding `CCCc1nn(C)c2c(=O)[nH]c(-c3cc(S(=O)(=O)N4CCN(C)CC4)ccc3OCC)nc12` [Viagra], in data set [1] (apomorphine HCl 0.25, 0.50, 1.0 mg, Viagra 50 mg), the “difference in effectiveness in initiating erections between treatments and placebo” value is reported as “no statistically significant difference”. The serious adverse events result in data set [1] (human, in vivo) is recorded as “no serious adverse events”. The “subjects who achieved a satisfactory erection (as reported by the subject)” value in data set [1] (single dose) is recorded as “around 30%”. For the same compound, in data set [1] (single dose, apomorphine 0.25-1.0 mg intranasal, Viagra 50 mg), the “efficacy by Global Self Assessment Scores (grade 3 or 4)” value is on record as 67%.

Regarding `O=C(O)CC(O)(CC(=O)O)C(=O)O` [Citric Acid], in data set [2], the pKa1 is 3.128, the pKa2 is on record as 4.761 and the pKa3 is 6.396.

As for `CN1CCc2cccc3c2[C@H]1Cc1ccc(O)c(O)c1-3` [Apomorphine Hydrochloride], the “volume of water in which one gram dissolves” value is “about 20 ml” in data set [3] (water at 80° C.) and 50 mL in data set [3] (water).

As to `CN1CC(=O)N2[C@H](c3ccc4c(c3)OCO4)c3[nH]c4ccccc4c3C[C@@H]2C1=O` [Cialis], in data set [4], the Dizziness is 6.2%, the Dyspepsia is listed as 7.7%, the Flushing is reported as 4.2% and the Headache is reported as 13.9%.
